Reference: DBAASP
≈ marks a conversion by molar mass, not a printed value. Where “and” joins values, the source holds several entries; their conditions need not be identical. Equal entries are not always repeated.

Experiments:
Experiment in all cases: ≥ marks a high value that may be exact or a test limit, other limits are often not marked, values filed in µg/mL are converted to µM
Bacillus megaterium Bm11 = system: Bacillus megaterium Bm11
Candida albicans = system: Candida albicans
Candida parapsilosis = system: Candida parapsilosis
Candida tropicalis = system: Candida tropicalis
[1] = system: Escherichia coli ATCC 25922
Escherichia coli ML-35 = system: Escherichia coli ML-35
[2] = system: Klebsiella pneumoniae ATCC 13883
Klebsiella pneumoniae = system: Klebsiella pneumoniae
[3] = system: Pseudomonas aeruginosa ATCC 27853
Rhodotorula mucilaginosa = system: Rhodotorula mucilaginosa
[4] = system: Salmonella enterica subsp. enterica serovar Enteritidis
[5] = system: Salmonella enterica subsp. enterica serovar Typhimurium ATCC 14028
[6] = system: Serratia marcescens ATCC 8100
[7] = system: Staphylococcus aureus ATCC 25923
Staphylococcus aureus = system: Staphylococcus aureus
[8] = system: Staphylococcus epidermidis ATCC 12228
Streptococcus equinus = system: Streptococcus equinus
[9] = system: Bacillus subtilis KCCM 11495
[10] = system: Escherichia coli KCCM 11569
Trypanosoma cruzi = system: Trypanosoma cruzi
[11] = system: Acinetobacter baumannii ATCC 19606
Acinetobacter baumannii = system: Acinetobacter baumannii
[12] = system: Corynebacterium jeikeium ATCC BAA-949
Enterococcus faecalis = system: Enterococcus faecalis
Escherichia coli D21 = system: Escherichia coli D21
Escherichia coli O111:B4 = system: Escherichia coli O111:B4
[13] = system: Staphylococcus aureus ATCC 29213
[14] = system: Staphylococcus aureus Cowan 1
Staphylococcus capitis 1 = system: Staphylococcus capitis 1
[15] = system: Yersinia pseudotuberculosis YPIII
[16] = system: Bacillus subtilis DSM 402
[17] = system: Escherichia coli DSM 30083

For `CC(C)C[C@H](NC(=O)[C@H](CCC(N)=O)NC(=O)[C@H](CCC(=O)O)NC(=O)[C@H](CC(C)C)NC(=O)[C@H](Cc1ccccc1)NC(=O)[C@H](CCC(=O)O)NC(=O)[C@H](CCC(N)=O)NC(=O)[C@H](Cc1ccccc1)NC(=O)[C@H](CO)NC(=O)[C@H](CC(C)C)NC(=O)[C@@H]1CCCN1C(=O)[C@H](Cc1ccccc1)NC(=O)[C@H](Cc1c[nH]c2ccccc12)NC(=O)[C@H](Cc1cnc[nH]1)NC(=O)[C@H](CCCN=C(N)N)NC(=O)[C@H](CCCN=C(N)N)NC(=O)[C@@H](N)CCCCN)C(=O)N[C@@H](CCCN=C(N)N)C(=O)N[C@@H](CCCN=C(N)N)C(=O)N[C@@H](Cc1ccccc1)C(=O)N[C@@H](CCCN=C(N)N)C(=O)N[C@@H](CC(=O)O)C(=O)N[C@@H](CCC(N)=O)C(=O)N[C@@H](CC(C)C)C(=O)N1CCC[C@H]1C(=O)N[C@@H](Cc1ccccc1)C(=O)N1CCC[C@H]1C(=O)O` [KRRHWFPLSFQEFLEQLRRFRDQLPFP], the MIC (Bacillus megaterium Bm11) was 3.92 µM (≈ 14 µg/mL), the MIC (Candida albicans) was > 31.9 µM and the MIC (Candida parapsilosis) was 31.9 µM (≈ 114 µg/mL). It also gave an MIC (Candida tropicalis) of 31.9 µM (≈ 114 µg/mL), an MIC [1] of 3.92 µM (≈ 14 µg/mL) and an MIC (Escherichia coli ML-35) of 3.92 µM (≈ 14 µg/mL). For the same compound, the MIC [2] was 7.97 µM (≈ 28.5 µg/mL), the MIC (Klebsiella pneumoniae) was 31.9 µM (≈ 114 µg/mL) and the MIC [3] was > 31.9 µM. For the same compound, the MIC (Rhodotorula mucilaginosa) was 31.9 µM and 15.9 µM, the MIC [4] was 31.9 µM (≈ 114 µg/mL) and the MIC [5] was 31.9 µM (≈ 114 µg/mL). It also gave an MIC [6] of 7.97 µM (≈ 28.5 µg/mL), an MIC [7] of 15.9 µM (≈ 57 µg/mL) and an MIC (Staphylococcus aureus) of 31.9 µM (≈ 114 µg/mL). For the same compound, the MIC [8] was 7.97 µM (≈ 28.5 µg/mL) and the MIC (Streptococcus equinus) was 31.9 µM (≈ 114 µg/mL).
In the case of `CC(C)C[C@H](NC(=O)CNC(=O)[C@H](Cc1cnc[nH]1)NC(=O)[C@H](Cc1cnc[nH]1)NC(=O)[C@H](CC(C)C)NC(=O)[C@H](CC(C)C)NC(=O)[C@H](C)NC(=O)[C@H](CC(N)=O)NC(=O)[C@H](CC(C)C)NC(=O)[C@@H](N)Cc1c[nH]c2ccccc12)C(=O)N[C@@H](CC(N)=O)C(=O)N[C@@H](CS)C(=O)N[C@@H](C)C(=O)N[C@@H](CCCCN)C(N)=O` [WLNALLHHGLNCAK], the MIC [9] is reported as ≥ 40.3 µM and the MIC [10] is reported as ≥ 40.3 µM.
`CC[C@H](C)[C@H](NC(=O)[C@H](C)NC(=O)[C@H](Cc1cnc[nH]1)NC(=O)[C@@H]1CCCN1C(=O)[C@@H](NC(=O)[C@H](CC(C)C)NC(=O)[C@H](CO)NC(=O)[C@H](CC(C)C)NC(=O)[C@@H](N)Cc1ccccc1)[C@@H](C)CC)C(=O)N[C@@H](CC(N)=O)C(=O)N[C@@H](C)C(=O)N[C@H](C(=O)N[C@@H](CO)C(=O)N[C@H](C(=O)N[C@@H](CC(C)C)C(=O)N[C@H](C(=O)N[C@@H](Cc1cnc[nH]1)C(=O)N[C@@H](Cc1cnc[nH]1)C(=O)N[C@@H](CO)C(=O)NCC(N)=O)C(C)C)[C@@H](C)O)C(C)C` [FLSLIPHAINAVSTLVHHSG] was tested, and the MIC (Trypanosoma cruzi) was 14.2 µM (≈ 30 µg/mL).
`CC[C@H](C)[C@H](N)C(=O)N[C@H](C(=O)NCC(=O)N1CCC[C@H]1C(=O)N[C@H](C(=O)N[C@@H](CC(C)C)C(=O)NCC(=O)N[C@@H](CC(C)C)C(=O)N[C@H](C(=O)NCC(=O)N[C@@H](CO)C(=O)N[C@@H](C)C(=O)N[C@@H](CC(C)C)C(=O)NCC(=O)NCC(=O)N[C@@H](CC(C)C)C(=O)N[C@@H](CC(C)C)C(=O)N[C@@H](CCCCN)C(=O)N[C@@H](CCCCN)C(=O)N[C@H](C(N)=O)[C@@H](C)CC)C(C)C)C(C)C)[C@@H](C)CC` [IIGPVLGLVGSALGGLLKKI] was tested, and the MIC [11] was 12.5 µM (≈ 24 µg/mL), the MIC (Acinetobacter baumannii) was ≥ 50 µM and the MIC [12] was 8 µM (≈ 15.3 µg/mL). The MIC (Enterococcus faecalis) was ≥ 50 µM, the MIC [1] was > 50 µM and the MIC (Escherichia coli D21) was ≥ 50 µM. For the same compound, the MIC (Escherichia coli O111:B4) was ≥ 50 µM, the MIC [3] was > 50 µM and the MIC [13] was 12.5 µM (≈ 24 µg/mL). For the same compound, the MIC [14] was 12.5 µM (≈ 24 µg/mL), the MIC (Staphylococcus capitis 1) was 12.5 µM (≈ 24 µg/mL) and the MIC [8] was 12.5 µM (≈ 24 µg/mL). It also gave an MIC [15] of 12.5 µM (≈ 24 µg/mL).
`CC(=O)N[C@@H](CCCN=C(N)N)C(=O)N[C@@H](Cc1c[nH]c2ccccc12)C(=O)N[C@@H](CCCN=C(N)N)C(=O)N[C@@H](Cc1c[nH]c2ccccc12)C(=O)N[C@@H](CCCN=C(N)N)C(=O)N[C@@H](Cc1c[nH]c2ccccc12)C(N)=O` [RWRWRW] was tested, and the MIC [16] was ≥ 45 µM and the MIC [17] was ≥ 45 µM.
